This is an account of results in paper PMC4759522, “A fragment merging approach towards the development of small molecule inhibitors of Mycobacterium tuberculosis EthR for use as ethionamide boosters” (Organic & Biomolecular Chemistry, 2016).

The target of assay [1] is T1, EthR (Mycobacterium tuberculosis, UniProt P9WMC1). Description: Fluorescence-based thermal shift (DSF) against EthR. The format is binding. The note with it: fluorescent-based thermal shift against EthR, 100 μM compound.
In assay [2] the target is T1, EthR. Description: SPR functional assay: disruption of the interaction between EthR and its DNA operator. It is filed as biochemical. The note with it: for LE: calculated using IC50 values determined by SPR; for fold improvement by SPR compared to compound 5: compared to merged compound 5. On the procedure: (§1) containing NaCl (300 mM), Tris.HCl (20 mM, pH = 8.0) and DMSO-d6 (10% v/v) was prepared and placed in the sample cell of a MicroCal iTC200 microcalorimeter (GE Healthcare). The fragment solution was then titrated to the EthR solution over 39 injections (first injection of 0.4 μl and subsequent injections of 1.0 μl). Data was fitted to a one site binding model using Origin software.
(§2) Figure S6 ITC trace for 4-(4-(3-Oxo-3-(pyrrolidin-1-yl)propyl)piperidin-1-yl)benzonitrile 15 Surface plasmon resonance (SPR)
(§3) The SPR assay was carried out using a BIAcore T100 instrument as described previously.2 The assay was designed to measure the interaction of EthR with the ethA promoter DNA sequence (106 bp – experimental DNA), immobilised via biotin-streptavidin linkage onto an […]
(1 picture or pasted object on this page, not shown here)
SA Series S Sensor Chip (BIAcore). DNA from pUC19 (113 bp) was used as the control against non-specific binding. The experimental (106 bp) and control (113 bp) DNA fragments were produced as described previously.15,16 Biotinylated control and experimental DNA were immobilized to the chip surface to achieve stable fixation levels of 247 and 252 resonance units (RU) respectively.
For screening, EthR/ fragment solution (1-2 μM EthR and required concentration of fragment made up in running buffer (2 mM MgCl2, 10 mM Tris-Cl pH 7.5, 0.1 mM EDTA, 200 mM NaCl, 2% (v/v) DMSO) was flowed over the chip at 20 μL/min for 180 s. The dissociation time was 180 s. To determine binding levels, the response of the control channel at steady state was subtracted from that of the experiment channel. The chip was regenerated between samples using 0.03% w/v SDS in running buffer (passed at a flow rate of 20 μL/ min for 60 […]
For IC50 calculations, the SPR response of EthR binding to the immobilized DNA was measured at various concentrations of compound. The resulting RUs were used to fit the data using nonlinear regression with variable slope dose-response inhibition constrains on GrapfPad PRISM 5.00. IC50 values were calculated as the compound concentrations necessary to inhibit 50% of the maximal interaction between EthR and its DNA operator […]
Figure S7 IC50 curve (SPR) for N-((1-(4-Cyanophenyl)piperidin-4-yl)methyl)pyrrolidine-1-

In assay [3] the target is T1, EthR. Briefly: Isothermal titration calorimetry (ITC) binding to EthR. The note with it: for K D (ITC): n.d. = no heats of binding detected.
From the text: Figure S5 Crystal structure of 28 bound to EthR (the two different binding modes for this ligand are super-imposed). Although the conformations of the side chains of residues Phe184 and Trp138 preclude the formation of sub-pockets III and IV in the sense of Figure S3, compound 28 is still capable of binding to the protein by altering the shape of the EthR hydrophobic cavity and moulding it around its own scaffold. (PDB code 5F0H) […]
Differential scanning fluorimetry (DSF)
DSF measurements were carried out using a Bio-Rad CFX Connect machine with a 96-well reaction module. Samples (50 μl each) containing EthR (20 μM), NaCl (150 mM), Tris.HCl (20 mM, pH = 8.5), SYPRO orange (2.5x) and test compound (100 µM) in water were prepared in 96-well plates. The 96-well plates were heated linearly from 25 °C to 95 °C using a temperature increment of 0.5 °C every 30 seconds. Melting curves represent plots of the fluorescence emission intensity at λmax 490/575 nm of each sample against temperature.
Melting temperatures (Tm) were determined as the temperatures at which the minima on the negative first derivatives of the melting curves occurred.
Isothermal titration calorimetry (ITC)
An aqueous solution of the fragment to be tested (1 mM) was prepared containing NaCl (300 mM), Tris.HCl (20 mM, pH = 8.0), d6-DMSO (10% v/v) and glycerol (to match the 10% v/v glycerol content in the EthR stock solution). A separate aqueous solution of EthR (50 μM) […]
(1 picture or pasted object on this page, not shown here) […]
as §1, §2, §3
Background: ITC needs no label: the signal is the heat of the interaction.

Like-named read-outs stand apart in the source and are kept apart here.

As usually defined, the IC50 is the concentration that inhibits the measured activity by half. As usually defined, the Kd is the free concentration of one partner at which half of the binding sites on the other are occupied at equilibrium, for simple one-to-one binding. The low end stands for a tighter complex, the high end for a looser complex.

T1 sequence (P9WMC1 whole entry, looked up, the tested form may be a part): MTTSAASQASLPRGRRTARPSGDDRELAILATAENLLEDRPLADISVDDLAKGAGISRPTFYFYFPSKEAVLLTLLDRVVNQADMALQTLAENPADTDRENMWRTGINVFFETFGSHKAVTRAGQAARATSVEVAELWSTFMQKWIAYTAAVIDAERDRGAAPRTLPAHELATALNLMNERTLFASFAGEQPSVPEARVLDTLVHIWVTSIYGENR

For `CCOC(=O)c1ccc(N2CCC(CCC(=O)N3CCCC3)CC2)cc1` [Compound 16], in assay [1], the ΔT m entry was “+9.3 °C”. Further, in assay [2], the IC50 turned out to be 3 µM. Also, the “K D (ITC)” value in assay [3] is recorded as “binding could not be measured by ITC”.

In the case of `O=C(CCC1CCCC1)N1CCCC1` [Compound 1], the ΔT m result in assay [1] is “+3.5 °C”. Besides, in assay [2], half-maximal inhibition (IC50) required 280 µM and the LE is 0.36. Further, binding in assay [3] was put at a Kd of 12 µM.

In the case of `CNCc1ccc(N2CCC(CCC(=O)N3CCCC3)CC2)cc1` [Compound 5], the ΔT m result in assay [1] was “+4.3 °C”. In assay [2], this molecule returned an IC50 of 35 µM. For the same molecule, the “fold improvement in disruption of EthR-DNA interaction (SPR IC50) compared to starting fragment 1” value in assay [2] (compared to fragment 1) is “eight-fold”. The molecule further came in with a dissociation constant (Kd) in assay [3] of 5 µM.

For `N#Cc1ccc(N2CCC(CCC(=O)N3CCCC3)CC2)cc1` [Compound 15, 4-(4-(3-Oxo-3-(pyrrolidin-1-yl)propyl)piperidin-1-yl)benzonitrile], the ΔT m entry in assay [1] was “+7.5 °C”. Also, in assay [2], half-maximal inhibition (IC50) required 3 µM, the LE is on record as 0.34 and the “fold improvement by SPR compared to compound 5” value worked out at 10 fold. In assay [3], this molecule returned a dissociation constant (Kd) of 1 µM. For the same molecule, the “fold decrease in K D by ITC compared to compound 5” value in assay [3] (compared to compound 5) is on record as “five-fold”.

As to `O=C(CCC1CCCC1)Nc1cccc(N2CCCCC2)c1` [Compound 4], the ΔT m result in assay [1] was “+4.5 °C”. The IC50 in assay [2] is greater than 100 µM.

As for `O=C(NCC1CCN(c2ncccn2)CC1)N1CCCC1` [Compound 22], the ΔT m result in assay [1] is “+3.7 °C”. Also, the IC50 in assay [2] is 20 µM. This molecule displayed a Kd in assay [3] of 12 µM.

Regarding `CCOC(=O)c1ccc(N2CCC(CNC(=O)C3CCCC3)CC2)cc1` [Compound 20], in assay [1], the ΔT m entry was “+5.5 °C”. The IC50 in assay [2] was greater than 100 µM.

For the molecule `O=C(NCC1CCN(c2ccccn2)CC1)N1CCCC1` [Compound 21], the ΔT m entry in assay [1] is “+3.8 °C”. In assay [2], it took 22 µM to reach half-maximal inhibition (IC50) and the LE is 0.31. In assay [3], this molecule returned a Kd of 24 µM.

For the molecule `N#Cc1ccc(N2CCC(CCC(=O)NCc3cccc(N4CCCCC4)c3)CC2)cc1` [Compound 29], in assay [1], the ΔT m result is “+9.2 °C”. Besides, it took 52 µM to reach half-maximal inhibition in assay [2] (IC50). The “K D (ITC)” value in assay [3] is on record as “could not be observed by ITC”.

In the case of `CNCc1ccc(N2CCCCC2)cc1` [Compound 2], in assay [1], the ΔT m entry is “+3.8 °C”. Further, the IC50 in assay [2] (disruption of EthR binding to its DNA operator, SPR, read-out: IC50 (SPR)) was greater than 100 µM.

`N#Cc1ccc(N2CCC(CCC(=O)Nc3cccc(N4CCCCC4)c3)CC2)cc1` [Compound 23, 3-(1-(4-cyanophenyl)piperidin-4-yl)-N-(3-(piperidin-1-yl)phenyl)propanamide] displayed an IC50 in assay [2] greater than 100 µM. For the same molecule, in assay [3], the “K D (ITC)” value is on record as “could not be observed by ITC”.

Take `N#Cc1ccc(N2CCC(CNC(=O)C3CCCC3)CC2)cc1` [Compound 19]: the ΔT m entry in assay [1] is “+5.9 °C”. The same molecule gave an IC50 in assay [2] of 25 µM.

In assay [2], `CNCc1ccc(N2CCCN(C(=O)CCC3CCCC3)C2)cc1` [Compound 3, 3-cyclopentyl-1-(3-(4-((methylamino)methyl)phenyl)tetrahydropyrimidin-1(2H)-yl)propan-1-one] had an IC50 greater than 100 µM.

In turn, `N#Cc1ccc(N2CCC(CCC(=O)NCc3ccc(N4CCCCC4)cc3)CC2)cc1` [Compound 28] came in with an IC50 in assay [2] of 33 µM. The “K D (ITC)” value in assay [3] is “could not be observed by ITC”.

As to `CN(Cc1ccc(N2CCC(CCC(=O)N3CCCC3)CC2)cc1)C(=O)OC(C)(C)C` [Compound 14], the ΔT m entry in assay [1] was “+6.3 °C”. Further, in assay [2], the concentration for half-maximal inhibition (IC50) amounted to 7 µM and the “fold improvement by SPR compared to compound 5” value is recorded as “five-fold”. For the same molecule, the Kd in assay [3] stood at 3 µM.

`N#Cc1ccc(N2CCC(CNC(=O)N3CCCC3)CC2)cc1` [Compound 17, N-((1-(4-Cyanophenyl)piperidin-4-yl)methyl)pyrrolidine-1-carboxamide]: in assay [1], the ΔT m entry is “+7.2 °C”. Besides, the concentration for half-maximal inhibition (IC50) in assay [2] was determined as 4 µM.

Turning to `CCOC(=O)c1ccc(N2CCC(CNC(=O)N3CCCC3)CC2)cc1` [Compound 18], the ΔT m entry in assay [1] was “+8.8 °C”. Further, in assay [2], the IC50 was found to be 2 µM.
